According to article PMC3744471, “Mitochondria Are the Target Organelle of Differentiation-Inducing Factor-3, an Anti-Tumor Agent Isolated from Dictyostelium Discoideum” (PLoS ONE, 2013):

How the values were obtained:
[1] = test system: mitochondrial malate dehydrogenase (mMDH); set-up: method as in PMID 20173310; details: cited from earlier work
[2] = test system: calmodulin-dependent cyclic nucleotide phosphodiesterase (PDE1); set-up: method as in PMID 15059913; details: cited from earlier work
[3] = Fluorescence microscopy: membrane permeability and cellular localization; type: cell-based, human; details: human, pH 7.4, HeLa, read-out: Time to reach maximal level in cells
Protocol: (§1) HeLa cells were cultured for 1–2 days with 2 ml DMEM-FBS in 35-mm tissue culture dishes (Becton Dickinson), washed twice with PBS(–), and then fixed for 15–20 min at room temperature with 2 ml of 3.7% (v/v) formaldehyde in PBS(–). The cells were then washed twice with PBS(–) and used for staining with the fluorescent probes. Alternatively, the fixed cells were treated for 15–20 min with 2 ml of 0.1% (w/v) Triton X-100 in PBS(–), washed twice with PBS(–), and used for staining with the fluorescent probes. […]
(§2) For high magnification multi-color imaging, cells were incubated for the appropriate times with 2 ml of DMEM-FBS (HeLa and 3T3-L1) or MEM-α-FBS (LM8) containing various compounds in 35-mm plastic dishes (tissue culture treated µ-Dish; ibidi, Martinsried, Germany). The cells were washed twice with 2 ml of PBS(–), submerged in 2 ml of Hepes buffer (pH 7.4), and observed at room temperature with a Keyence BZ-9000 fluorescence microscope (Osaka, Japan) equipped with an oil immersion 100× lens (CFI Plan Apo VC100XH) and multi-filters that can distinguish four fluorescent probes simultaneously. […]

HeLa cells [4] = experiment: as above; type: cell-based, human; details: 20 µM
Protocol: as §1, §2

HeLa cells [5] = experiment: Withdrawal of BODIPY-DIF-3: recovery of cell growth and mitochondrial morphology; type: cell-based, human; details: 20 µM 3 days, then 2 days DMSO
Protocol: In the assay of the effect of withdrawal of BODIPY-DIF-3 on cell growth (Figure 6A), HeLa cells were incubated for 3 days with 2 ml of DMEM-FBS containing 20 µM BODIPY-DIF-3 in 35-mm tissue culture dishes (Becton Dickinson, Franklin Lakes, NJ, USA) (5×10^3 cells/dish), washed 2 times with 2 ml of PBS(–), and further incubated for 2 days with 2 ml of DMEM-FBS containing 0.2% DMSO or 20 µM BODIPY-DIF-3; meanwhile, control cells were incubated for 5 days with 2 ml of DMEM-FBS containing 0.2% DMSO. Relative cell number was assessed as described above, and all experiments were performed in triplicate.

Row | Structure (SMILES) | Binding to and inhibition of mMDH [1] | Inhibition of PDE1 [2] | Tmax at 20 µM [3] [min] | Time to penetrate the cell membrane (HeLa cells [4]) [min] | Reversibility of action after withdrawal at Day 3 (HeLa cells [5])
1 | CCCCCC(=O)c1c(O)cc(OC)c(Cl)c1O [DIF-3, 1-(3-chloro-2,6-dihydroxy-4-methoxyphenyl)hexan-1-one] | neither binds nor inhibits mMDH | direct inhibitors of PDE1 |  |  | 
2 | CCCCCC(=O)c1c(O)cc(OCCCCNC(=O)CCC2=[N+]3C(=Cc4c(C)cc(C)n4[B-]3(F)F)C=C2)c(Cl)c1O [BODIPY-DIF-3] |  |  | ≤ 30 | ≤ 2 | reversible
